Columns and labels:
[1] = system: 5-HT2A receptor activity; assay: Dose finding: behavioral syndrome, wet dog shakes (WDS) and back muscle contractions (BMC); format: in vivo; details: rats
Description: Psilocybin was tested at a dose range of 0.03-10.0 mg/kg administered subcutaneously (S.C.) Behavioral syndrome including wet dog shakes (WDS) and back muscle contractions (BMC) are characteristic of 5-HT2A receptor activity and potentially indicative of psychomotor signs. […] There is a parallel between behaviors such as WDS in rats and hallucination in humans (Behavioral Neurobiology of Psychedelic Drugs, Halberstadt, Adam, Vollenweider, Franz X., Nichols, David E. (Eds.), Springer, 2018, p 161).

[2] = Psilocybin and psilocin plasma pharmacokinetics after s.c. psilocybin; format: in vivo, rats; details: rats; for AUC0-tlast, Mean / Cmax, Mean / Cmax/Dose, Mean / tmax, Mean / AUC0-inf, Mean / AUC0-inf/Dose, Mean / Apparent t1/2, Mean / MRT0-inf, Mean: psilocybin in plasma
Description: Psilocybin doses of 0.05, 0.1, 1, 10 mg/kg were used to evaluate psilocybin and psilocin PK in rats. For the doses of psilocybin that positively effect behaviors in the low performers in the PR and 5CSRTT, e.g., 0.05-0.1 mg/kg, the corresponding Cm. of psilocin was ˜7±2 ng/ml at 30 minutes for 0.05 mg/kg, and at a dose of 0.1 mg/kg, the Cm. of psilocin was determined to be ˜12±3 ng/ml at 30 minutes (FIG. 5).
Details of the plasma concentration studies are shown in Tables 1-8 (psilocybin) and 9-16 (psilocin). Values in italics are below the lower level of quantitation (BLQ, <1 ng/mL) but were included in calculations. Values in bold and underlined are considered to be outliers and were omitted from calculations. Measured dosing solution concentrations were 0.0460, 0.0967, 0.948 and 9.65 mg/mL for 0.05, 0.1, 1 and 10 […].

[3] = Minipump infusion of psilocybin over 12 days: plasma/blood exposure; format: in vivo, rats; details: psilocybin minipump, days 4-12, rats
Description: A dose of psilocybin, which is free from perceptual and behavioral side effects, was dosed in rats (N=24) continuously over a period of 12 days using an Alzet minipump implanted in rats of approximately 380-390 g body weight. The pump was primed to deliver psilocybin at 5 mg/kg/day pump concentration. The target plasma concentration was 10 ng/ml psilocin with actual plasma concentration 9.3+1.3 ng/ml over the 12 day study period.
Blood was collected from rats on days 4, 8 and 12 to measure levels of psilocybin and psilocin in Group B rats. Blood was collected via saphenous bleed at a standard timepoint which will not interfere with 5-choice testing. Psilocin blood levels were in the range of 8-10 ng/ml over days 4-12, while psilocybin blood levels were in the range of 2-5 ng/ml over days 4-12 (FIG. 7A), corresponding to 10 ng/mL psilocin. […] The present observations recorded for psilocybin/psilocin are occurring at exposure levels of psilocin ˜10 ng/ml (e.g., FIG. 5), likely resulting in a low level of CNS 5-HT2A receptor occupancy, and which is insufficient to elicit cardinal signs of 5-HT2A receptor activation such as WDS/BMC in rats (e.g., FIG. 1B).

[4] = system: 5-HT2A receptor activation; assay: Motor activity and overt stereotypies during minipump dosing; format: in vivo; details: psilocybin minipump, 12 days, rats
Description: There were no changes in motor activity (distance travelled, rearing counts), or induction of overt stereotypies, including cardinal signs of 5-HT2A receptor activation (Wet Dog Shakes and Back Muscle Contractions (WDS, BMD). At the completion of 12 days testing the rats were euthanized and cardiac and brain tissue were collected and snap frozen. Histological analysis was performed for the samples.

CN(C)CCc1c[nH]c2cccc(OP(=O)(O)O)c12 [psilocybin, 4-phosphoryloxy-N,N-dimethyltryptamine]
signs of behavioral syndrome (WDS/BMC) ([1]; 0.3 mg/kg I.P and higher): significant signs of behavior syndrome
signs of behavioral syndrome (WDS/BMC) ([1]; 0.03-0.1 mg/kg S.C.): no signs of behavioral syndrome
Plasma concentration of psilocybin, Mean ([2]; psilocybin 0.05 mg/kg s.c., 0.25 h): 6.20 ng/mL
Plasma concentration of psilocybin, Mean ([2]; psilocybin 0.05 mg/kg s.c., 0.5 h): 12.5 ng/mL
Plasma concentration of psilocybin, Mean ([2]; psilocybin 0.05 mg/kg s.c., 0.75 h): 1.07 ng/mL
Plasma concentration of psilocybin, Mean ([2]; psilocybin 0.05 mg/kg s.c., 1 h): 19.2 ng/mL
Plasma concentration of psilocybin, Mean ([2]; psilocybin 0.05 mg/kg s.c., 2 h): 0.594 ng/mL
Plasma concentration of psilocybin, Mean ([2]; psilocybin 0.05 mg/kg s.c., 4 h): 1.95 ng/mL
Plasma concentration of psilocybin, Mean ([2]; psilocybin 0.05 mg/kg s.c., 6 h): 2.12 ng/mL
Plasma concentration of psilocybin, Mean ([2]; psilocybin 0.1 mg/kg s.c., 0.25 h): 21.7 ng/mL
Plasma concentration of psilocybin, Mean ([2]; psilocybin 0.1 mg/kg s.c., 0.5 h): 28.9 ng/mL
Plasma concentration of psilocybin, Mean ([2]; psilocybin 0.1 mg/kg s.c., 0.75 h): 2.96 ng/mL
Plasma concentration of psilocybin, Mean ([2]; psilocybin 0.1 mg/kg s.c., 1 h): 2.19 ng/mL
Plasma concentration of psilocybin, Mean ([2]; psilocybin 0.1 mg/kg s.c., 2 h): 1.76 ng/mL
Plasma concentration of psilocybin, Mean ([2]; psilocybin 0.1 mg/kg s.c., 4 h): 2.55 ng/mL
Plasma concentration of psilocybin, Mean ([2]; psilocybin 0.1 mg/kg s.c., 6 h): 0.921 ng/mL
Plasma concentration of psilocybin, Mean ([2]; psilocybin 1.0 mg/kg s.c., 0.25 h): 75.2 ng/mL
Plasma concentration of psilocybin, Mean ([2]; psilocybin 1.0 mg/kg s.c., 0.5 h): 47.3 ng/mL
Plasma concentration of psilocybin, Mean ([2]; psilocybin 1.0 mg/kg s.c., 0.75 h): 35.8 ng/mL
Plasma concentration of psilocybin, Mean ([2]; psilocybin 1.0 mg/kg s.c., 1 h): 35.1 ng/mL
Plasma concentration of psilocybin, Mean ([2]; psilocybin 1.0 mg/kg s.c., 2 h): 2.19 ng/mL
Plasma concentration of psilocybin, Mean ([2]; psilocybin 1.0 mg/kg s.c., 4 h): 1.12 ng/mL
Plasma concentration of psilocybin, Mean ([2]; psilocybin 1.0 mg/kg s.c., 6 h): 0.929 ng/mL
Plasma concentration of psilocybin, Mean ([2]; psilocybin 10 mg/kg s.c., 0.25 h): 1030 ng/mL
Plasma concentration of psilocybin, Mean ([2]; psilocybin 10 mg/kg s.c., 0.5 h): 1544 ng/mL
Plasma concentration of psilocybin, Mean ([2]; psilocybin 10 mg/kg s.c., 0.75 h): 344 ng/mL
Plasma concentration of psilocybin, Mean ([2]; psilocybin 10 mg/kg s.c., 1 h): 269 ng/mL
Plasma concentration of psilocybin, Mean ([2]; psilocybin 10 mg/kg s.c., 2 h): 101 ng/mL
Plasma concentration of psilocybin, Mean ([2]; psilocybin 10 mg/kg s.c., 4 h): 1.80 ng/mL
Plasma concentration of psilocybin, Mean ([2]; psilocybin 10 mg/kg s.c., 6 h): 1.32 ng/mL
AUC0-tlast, Mean ([2]; psilocybin 0.05 mg/kg s.c.): 10.7 ng·h/mL
Cmax, Mean ([2]; psilocybin 0.05 mg/kg s.c.): 18.9 ng/mL
Cmax/Dose, Mean ([2]; psilocybin 0.05 mg/kg s.c.): 377 kg·ng/mL/mg
tmax, Mean ([2]; psilocybin 0.05 mg/kg s.c.): 36 min
AUC0-tlast, Mean ([2]; psilocybin 0.1 mg/kg s.c.): 11.4 ng·h/mL
Cmax, Mean ([2]; psilocybin 0.1 mg/kg s.c.): 31.4 ng/mL
Cmax/Dose, Mean ([2]; psilocybin 0.1 mg/kg s.c.): 314 kg·ng/mL/mg
tmax, Mean ([2]; psilocybin 0.1 mg/kg s.c.): 19.3 min
AUC0-inf, Mean ([2]; psilocybin 1.0 mg/kg s.c.): 47.9 ng·h/mL
AUC0-inf/Dose, Mean ([2]; psilocybin 1.0 mg/kg s.c.): 47.9 kg·ng·h/mL/mg
AUC0-tlast, Mean ([2]; psilocybin 1.0 mg/kg s.c.): 53.1 ng·h/mL
Apparent t1/2, Mean ([2]; psilocybin 1.0 mg/kg s.c.): 26.7 min
Cmax, Mean ([2]; psilocybin 1.0 mg/kg s.c.): 78.3 ng/mL
Cmax/Dose, Mean ([2]; psilocybin 1.0 mg/kg s.c.): 78.3 kg·ng/mL/mg
MRT0-inf, Mean ([2]; psilocybin 1.0 mg/kg s.c.): 44.8 min
tmax, Mean ([2]; psilocybin 1.0 mg/kg s.c.): 21.4 min
AUC0-inf, Mean ([2]; psilocybin 10 mg/kg s.c.): 2156 ng·h/mL
AUC0-inf/Dose, Mean ([2]; psilocybin 10 mg/kg s.c.): 216 kg·ng·h/mL/mg
AUC0-tlast, Mean ([2]; psilocybin 10 mg/kg s.c.): 1707 ng·h/mL
Apparent t1/2, Mean ([2]; psilocybin 10 mg/kg s.c.): 34 min
Cmax, Mean ([2]; psilocybin 10 mg/kg s.c.): 3595 ng/mL
Cmax/Dose, Mean ([2]; psilocybin 10 mg/kg s.c.): 359 kg·ng/mL/mg
MRT0-inf, Mean ([2]; psilocybin 10 mg/kg s.c.): 43 min
tmax, Mean ([2]; psilocybin 10 mg/kg s.c.): 30 min
psilocybin blood levels [3]: 2 to 5 ng/mL
motor activity (distance travelled, rearing counts), overt stereotypies incl. WDS and BMC [4]: no changes
